The supplement of paper PMC10307832

Assays:
Assay in all cases: relative viability (nuclei count vs DMSO), 5 days (fraction); higher = more cells survive
[1] = compound: C1=CC2=C(C=C(C(=C2N=C1)O)N=NC3=CC4=C(C=C3)C=C(C=C4)S(=O)(=O)O)S(=O)(=O)O + Cc1cc(Nc2cc(N3CCN(C)CC3)nc(Sc3ccc(NC(=O)C4CC4)cc3)n2)n[nH]1 [Tozasertib] (partner 0.1 µM)
Method in brief: (§1)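 Lung cancer cell lines in 1536-well plates got either a single drug or a fixed anchor-drug dose together with five library-drug doses (not always all listed) in √10 steps, by pin tool, on the day after seeding. Nuclei were counted after 5 days, and relative viability is the treated-to-vehicle ratio of nuclei counts. Values are medians of duplicate plates.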

AT-7519 + Navitoclax = compound: O=C(NC1CCNCC1)c1n[nH]cc1NC(=O)c1c(Cl)cccc1Cl [AT-7519] + CC1(C)CCC(c2ccc(Cl)cc2)=C(CN2CCN(c3ccc(C(=O)NS(=O)(=O)c4ccc(N[C@H](CCN5CCOCC5)CSc5ccccc5)c(S(=O)(=O)C(F)(F)F)c4)cc3)CC2)C1 [Navitoclax] (partner 0.5 µM)
Method in brief: as §1

AT-7519 + Crizotinib = compound: O=C(NC1CCNCC1)c1n[nH]cc1NC(=O)c1c(Cl)cccc1Cl [AT-7519] + C[C@@H](Oc1cc(-c2cnn(C3CCNCC3)c2)cnc1N)c1c(Cl)ccc(F)c1Cl [Crizotinib] (partner 1 µM)
Method in brief: as §1

AT-7519 + Pemetrexed = compound: O=C(NC1CCNCC1)c1n[nH]cc1NC(=O)c1c(Cl)cccc1Cl [AT-7519] + Nc1nc2[nH]cc(CCc3ccc(C(=O)N[C@@H](CCC(=O)O)C(=O)O)cc3)c2c(=O)[nH]1 [Pemetrexed] (partner 0.2 µM)
Method in brief: as §1

Row | Cell Line | relative viability ([1]; first compound 0.08 µM) | relative viability ([1]; first compound 0.253 µM) | relative viability ([1]; first compound 0.8 µM) | relative viability ([1]; first compound 2.53 µM) | relative viability ([1]; first compound 8 µM) | relative viability (AT-7519 + Navitoclax; first compound 0.01 µM) | relative viability (AT-7519 + Navitoclax; first compound 0.03162 µM) | relative viability (AT-7519 + Navitoclax; first compound 0.3162 µM) | relative viability (AT-7519 + Navitoclax; first compound 1 µM) | relative viability (AT-7519 + Crizotinib; first compound 0.01 µM) | relative viability (AT-7519 + Crizotinib; first compound 0.03162 µM) | relative viability (AT-7519 + Crizotinib; first compound 0.3162 µM) | relative viability (AT-7519 + Crizotinib; first compound 1 µM) | relative viability (AT-7519 + Pemetrexed; first compound 0.01 µM) | relative viability (AT-7519 + Pemetrexed; first compound 0.03162 µM) | relative viability (AT-7519 + Pemetrexed; first compound 0.3162 µM) | relative viability (AT-7519 + Pemetrexed; first compound 1 µM)
1 | ChaGo-K-1 | 0.238 | 0.198 | 0.205 | 0.205 | 0.244 | 0.971 | 1.39 | 0.726 | 0.982 | 1.08 | 1.12 | 0.792 | 0.743 | 0.27 | 0.267 | 0.276 | 0.254
2 | COR-L 105 | 0.355 | 0.37 | 0.367 | 0.361 | 0.378 | 0.766 | 0.721 | 0.644 | 0.347 | 0.823 | 0.784 | 0.469 | 0.289 | 1.26 | 1.08 | 1.07 | 0.657
3 | NCI-H1975 | 0.772 | 0.753 | 0.754 | 0.736 | 0.686 | 1.01 | 1.02 | 0.87 | 0.236 | 1.09 | 0.973 | 0.877 | 0.206 | 0.304 | 0.302 | 0.306 | 0.181
4 | NCI-H1993 | 0.576 | 0.576 | 0.581 | 0.56 | 0.548 | 0.895 | 0.781 | 0.984 | 0.548 | 0.846 | 0.82 | 0.813 | 0.577 | 0.536 | 0.581 | 0.522 | 0.532
5 | RERF-LC-KJ | 0.506 | 0.601 | 0.512 | 0.519 | 0.509 | 1.04 | 0.981 | 0.848 | 0.408 | 0.802 | 0.738 | 0.963 | 0.806 | 0.448 | 0.473 | 0.414 | 0.303
6 | NCI-H23 | 0.375 | 0.323 | 0.417 | 0.388 | 0.401 | 0.858 | 0.622 | 1.02 | 0.461 | 0.544 | 0.446 | 0.543 | 0.318 | 0.563 | 0.734 | 0.591 | 0.494
7 | HCC-366 | 0.152 | 0.0806 | 0.188 | 0.113 | 0.125 | 1.07 | 1.16 | 1.07 | 0.672 | 0.463 | 0.668 | 0.457 | 0.179 | 0.178 | 0.162 | 0.185 | 0.216
8 | EMC-BAC-2 | 0.303 | 0.29 | 0.303 | 0.337 | 0.302 | 0.89 | 1.02 | 1.05 | 1.18 | 0.766 | 0.744 | 0.746 | 0.881 | 0.464 | 0.442 | 0.438 | 0.514
9 | NCI-H2405 | 0.894 | 0.811 | 0.782 | 0.82 | 0.711 | 1.02 | 0.829 | 0.853 | 0.528 | 0.794 | 0.847 | 0.827 | 0.598 | 1.02 | 0.996 | 1.08 | 0.729
10 | NCI-H1944 | 0.263 | 0.241 | 0.263 | 0.241 | 0.237 | 0.988 | 1.06 | 1.14 | 0.982 | 1.18 | 1.34 | 0.926 | 0.862 | 0.633 | 0.593 | 0.602 | 0.511
11 | EPLC-272H | 0.351 | 0.365 | 0.203 | 0.273 | 0.325 | 1.13 | 1.01 | 1.31 | 0.972 | 0.896 | 0.918 | 0.809 | 0.934 | 0.268 | 0.328 | 0.303 | 0.0761
12 | NCI-H1915 | 0.471 | 0.445 | 0.463 | 0.436 | 0.437 | 0.817 | 0.83 | 0.758 | 0.785 | 0.933 | 0.926 | 0.793 | 0.741 | 0.5 | 0.494 | 0.516 | 0.501
13 | NCI-H596 | 1.16 | 0.926 | 0.834 | 0.818 | 1.04 | 1 | 1.06 | 0.951 | 0.637 | 0.828 | 0.962 | 1.05 | 0.87 | 0.473 | 0.501 | 0.459 | 0.513
14 | NCI-H322M | 0.541 | 0.468 | 0.433 | 0.496 | 0.47 | 1.07 | 1.16 | 1.09 | 1.07 | 0.848 | 0.93 | 0.892 | 0.901 | 0.563 | 0.623 | 0.469 | 0.543
15 | NCI-H2228 | 0.264 | 0.269 | 0.279 | 0.233 | 0.295 | 1.08 | 0.72 | 1.04 | 0.437 | 0.549 | 0.379 | 0.403 | 0.313 | 0.404 | 0.395 | 0.313 | 0.265
16 | NCI-H647 | 0.49 | 0.279 | 0.308 | 0.231 | 0.267 | 1.11 | 1.19 | 1.12 | 0.762 | 0.812 | 0.873 | 0.965 | 0.411 | 0.142 | 0.159 | 0.177 | 0.129

Row | Cell Line | relative viability ([1]; first compound 0.08 µM) | relative viability ([1]; first compound 0.253 µM) | relative viability ([1]; first compound 0.8 µM) | relative viability ([1]; first compound 2.53 µM) | relative viability ([1]; first compound 8 µM) | relative viability (AT-7519 + Navitoclax; first compound 0.01 µM) | relative viability (AT-7519 + Navitoclax; first compound 0.03162 µM) | relative viability (AT-7519 + Navitoclax; first compound 0.3162 µM) | relative viability (AT-7519 + Navitoclax; first compound 1 µM) | relative viability (AT-7519 + Crizotinib; first compound 0.01 µM) | relative viability (AT-7519 + Crizotinib; first compound 0.03162 µM) | relative viability (AT-7519 + Crizotinib; first compound 0.3162 µM) | relative viability (AT-7519 + Crizotinib; first compound 1 µM) | relative viability (AT-7519 + Pemetrexed; first compound 0.01 µM) | relative viability (AT-7519 + Pemetrexed; first compound 0.03162 µM) | relative viability (AT-7519 + Pemetrexed; first compound 0.3162 µM) | relative viability (AT-7519 + Pemetrexed; first compound 1 µM)
17 | SK-MES-1 | 1.01 | 0.888 | 0.804 | 0.924 | 0.935 | 1.18 | 1.08 | 1.25 | 1.15 | 1.05 | 0.903 | 0.854 | 0.787 | 1.12 | 1.04 | 0.982 | 0.798
18 | NCI-H2170 | 0.678 | 0.714 | 0.753 | 0.774 | 0.638 | 0.566 | 0.497 | 0.61 | 0.45 | 1.16 | 1.26 | 1.18 | 1.18 | 0.263 | 0.276 | 0.241 | 0.25
19 | NCI-H2085 | 0.928 | 0.742 | 0.784 | 0.886 | 0.813 | 1.18 | 1.21 | 0.967 | 0.658 | 0.762 | 0.832 | 0.696 | 0.553 | 0.924 | 1.01 | 0.901 | 0.986
20 | SW 1573 | 0.164 | 0.185 | 0.187 | 0.181 | 0.0943 | 0.921 | 0.873 | 0.704 | 0.224 | 0.817 | 0.755 | 0.84 | 0.368 | 0.745 | 0.833 | 0.401 | 0.126
21 | NCI-H441 | 0.636 | 0.685 | 0.644 | 0.712 | 0.605 | 0.592 | 0.628 | 0.571 | 0.412 | 0.656 | 0.905 | 0.673 | 0.428 | 0.283 | 0.266 | 0.263 | 0.198
22 | LOU-NH91 | 0.77 | 0.667 | 0.681 | 0.748 | 0.734 | 0.668 | 0.629 | 0.693 | 0.525 | 0.73 | 0.742 | 0.766 | 0.711 | 0.306 | 0.359 | 0.385 | 0.506
23 | NCI-H3122 | 0.371 | 0.37 | 0.405 | 0.514 | 0.378 | 1.02 | 1.07 | 1.06 | 0.558 | 0.272 | 0.277 | 0.241 | 0.208 | 0.215 | 0.209 | 0.173 | 0.176
24 | NCI-H460 | 0.627 | 0.381 | 0.559 | 0.543 | 0.4 | 0.965 | 1 | 0.932 | 0.0202 | 0.858 | 0.9 | 0.608 | 0.0144 | 0.0626 | 0.0564 | 0.0558 | 0.0636
25 | NCI-H1734 | 0.263 | 0.249 | 0.261 | 0.289 | 0.238 | 0.893 | 0.758 | 0.686 | 0.452 | 0.662 | 0.724 | 0.544 | 0.305 | 0.426 | 0.435 | 0.383 | 0.366
26 | LXF-289 | 0.234 | 0.159 | 0.179 | 0.19 | 0.228 | 0.984 | 1.07 | 1 | 0.917 | 0.838 | 0.898 | 0.811 | 0.816 | 0.866 | 0.905 | 0.909 | 0.992
27 | H3255 | 0.59 | 0.705 | 0.655 | 0.604 | 0.864 | 0.463 | 0.491 | 0.647 | 0.431 | 0.942 | 0.838 | 0.849 | 0.756 | 0.559 | 0.589 | 0.499 | 0.503
28 | 201T | 1.03 | 0.901 | 0.987 | 0.967 | 0.934 | 1.19 | 1.17 | 1.27 | 1.25 | 1.04 | 1.1 | 1.03 | 1.09 | 0.343 | 0.311 | 0.288 | 0.331
29 | NCI-H2126 | 0.911 | 0.824 | 0.843 | 0.938 | 0.792 | 0.893 | 0.866 | 0.83 | 0.823 | 1.07 | 1.05 | 0.931 | 1 | 0.711 | 0.745 | 0.689 | 0.576
30 | HOP-62 | 0.458 | 0.381 | 0.384 | 0.403 | 0.363 | 0.824 | 0.983 | 1.01 | 0.923 | 0.893 | 0.966 | 0.675 | 0.889 | 0.359 | 0.335 | 0.302 | 0.328
31 | CAL-12T | 0.29 | 0.34 | 0.378 | 0.327 | 0.296 | 1.21 | 1.05 | 0.855 | 0.128 | 0.562 | 0.537 | 0.201 | 0.16 | 1.23 | 1.11 | 0.584 | 0.147
